According to patent US7862815B2, “Methods for inhibiting angiogenesis with inhibitors of proadrenomedullin N-terminal 20 peptide (PAMP)” (The United States of America as represented by the …, priority 2002, dated 2011):

How the values were obtained:
A549 = experiment: DIVAA, angiogenesis induced by tumor cells embedded in matrigel; assay type: in vivo, human; details: A549, 10,000 cells per angioreactor, 100 nM PAMP(12-20)
Method: (§1) Analysis and quantitation of angiogenesis was done using DIVAA as previously described (Martinez et al., J. Natl. Cancer Inst., 21; 94(16):1226-37, 2002; Guedez et al., Am. J. Pathol. 162, 1431-1439, 2003). Briefly, 10 mm long surgical-grade silicone tubes with only one end open (angioreactors) were filled with 20 μl of matrigel alone or mixed with AM, bFGF, VEGF, PAMP, and/or PAMP(12-20) at the indicated concentrations. Human lung cancer cell lines (see below) were also premixed with matrigel alone or in combination with PAMP(12-20) at 10,000 cells per angioreactor. After the matrigel solidified, the angioreactors were implanted into the dorsal flanks of anesthetized athymic nude mice (NCI colony). After eleven days, the mice were injected intravenously with 25 mg/ml FITC-dextran (100 μl/mouse, Sigma) 20 minutes before removing the angioreactors. Photographs of the implants were taken for visual examination of angiogenic response. Quantitation of neovascularization in the angioreactors was determined as the amount of fluorescence trapped in the implants and was measured in a HP Spectrophotometer (Perkin Elmer).
(§2) The human cancer cell lines used, A549 and H1299, were obtained from the American Tissue Culture Collection (ATCC) and fed with RPMI164O containing 10% fetal bovine serum (Invitrogen). […]

H1299 = experiment: as above; assay type: in vivo, human; details: H1299, 10,000 cells per angioreactor, 100 nM PAMP(12-20)
Method: as §1, §2

A549 tumors = experiment: Xenograft experiment; assay type: in vivo, athymic nude mice
Method: Twenty female athymic nude mice from the NIH colony in Frederick (MD) were injected subcutaneously with 1.0×10^7 A549 cells/mouse. Two weeks later, all the mice had developed palpable tumors under the skin and at this time they were divided in two groups. Three times a week, each individual tumor was measured (length, height, thickness) and every mouse received an intratumoral injection, according to their group. Group 1 (control) received 100 μl PBS. […] When the tumor burden became unbearable, the mice were sacrificed.

athymic nude mice = experiment: DIVAA with angioreactors, Example 2 (peptides in matrigel); assay type: in vivo
Method: as §1
To further characterize this observation, an […] assay was employed that allows for more precise quantitation of angiogenic properties: the directed […] angiogenesis assay or DIVAA (Martinez et al., J. Natl. Cancer Inst., 21; 94(16): 1226-37, 2002; Guédez et al., Am. J. Pathol. 162, 1431-1439, 2003). The assay involves implanting small silicone capsules carrying the test substances under the skin of nude mice. After eleven days, the mice are injected with a specific amount of FITC-dextran, and the volume of blood circulating through the implant is quantified by measuring the fluorescence in the capsule. In addition, the new blood vessels growing into the silicone tube can be seen directly by transparency (FIG. 4A-F). […] The extent of the angiogenic response can be seen clearly when this response is compared with the negative control (FIG. 4A). The angiogenic response elicited by PAMP was dose-dependent (FIG. 4C-G). When compared to AM and VEGF responses at equimolar concentrations, a clear difference was observed.

[1] = test system: Human dermal microvascular endothelial cells; experiment: Calcium measurements (ATP-induced calcium flux); assay type: cell-based; details: 100 nM PAMP(12-20) with 10 nM PAMP and 1 mM ATP
Method: Human dermal microvascular endothelial cells were obtained from Cell Applications, Inc. and cultured in 96-well plates at 1.0×10^5 cells per well. The cells were loaded for 60 minutes at room temperature with the fluorescent dye FLIPR (Molecular Devices) and then transferred to the FlexStation II (Molecular Devices) for analysis. The test compounds were prepared in another plate at a concentration of 5× and were added to the proper wells by the robotic arm of the FlexStation II. Fluorescence was measured every five seconds in each well and recorded. One mM ATP (Sigma) was used as a calcium agonist (Lau et al., Life Sci. 73, 20 19-2028, 2003).

proadrenomedullin N-terminal 20 peptide (12-20) (KWNKWALSR; listed as Homo sapiens) [PAMP(12-20), peptide which comprises only amino acids 12-20 of PAMP]
inhibition of tumor cell-induced angiogenic response (A549): completely blocked
inhibition of tumor cell-induced angiogenic response (H1299): completely blocked
treatment time after which statistical differences in tumor size were observed (A549 tumors; 1 mM PAMP(12-20) versus PBS, ten mice per group): nine
tumor growth versus PBS control (A549 tumors; 1 mM PAMP(12-20), 100 μl intratumoral injection three times a week): slower rate of tumor growth
inhibition of the angiogenic response elicited by PAMP (athymic nude mice; 1 nM PAMP with 100 nM PAMP(12-20) (hundred-fold excess)): inhibited angiogenesis to the basal levels
inhibition of the angiogenic response elicited by PAMP (athymic nude mice; 1 nM full-length PAMP with increasing doses of PAMP(12-20)): dose-dependent inhibition
effect on basal angiogenesis (athymic nude mice; PAMP(12-20) by itself): did not modify basal angiogenesis
reversal of PAMP block of ATP-induced calcium response [1]: initial response was recovered
